Data taken from PubChem BioAssay AID330 (DTP/NCI, 2004).
Toxic doses and inconclusive results are not listed. Rule for the calls: active = survival T/C of 150% or more; inactive = T/C below 125% in these data.

Test system: P388 leukemia ip, CD2F1 mice, survival T/C
Assay: NCI In Vivo Anticancer Drug Screen. Data for tumor model P388 Leukemia (intraperitoneal) in CD2F1 (CDF1) mice
Settings: endpoint: median survival time, higher = longer survival
In short: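 Mice carrying the transplanted tumor received test compound or vehicle. Survival was recorded in each group, and the value is the treated-group measurement divided by that of the vehicle-treated control group.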

[1] = dose: 100.0 mg/kg/injection, schedule: Q01DX009 (ip), vehicle: Klucel (hydroxypropylcellulose) (HPC)
[2] = dose: 100.0 mg/kg/injection, schedule: Q04DX003 (ip), vehicle: saline
[3] = dose: 200.0 mg/kg/injection, schedule: Q01DX009 (ip), vehicle: Klucel (hydroxypropylcellulose) (HPC)
[4] = dose: 100.0 mg/kg/injection, schedule: Q01DX009 (ip), vehicle: saline with Tween-80
[5] = dose: 200.0 mg/kg/injection, schedule: Q01DX009 (ip), vehicle: saline with Tween-80
[6] = dose: 50.0 mg/kg/injection, schedule: Q01DX005 (ip), vehicle: Klucel (hydroxypropylcellulose) (HPC)
[7] = dose: 100.0 mg/kg/injection, schedule: Q01DX005 (ip), vehicle: Klucel (hydroxypropylcellulose) (HPC)
[8] = dose: 200.0 mg/kg/injection, schedule: Q01DX005 (ip), vehicle: Klucel (hydroxypropylcellulose) (HPC)
[9] = dose: 12.5 mg/kg/injection, schedule: Q01DX009 (ip), vehicle: saline with Tween-80
[10] = dose: 25.0 mg/kg/injection, schedule: Q01DX009 (ip), vehicle: saline with Tween-80
[11] = dose: 50.0 mg/kg/injection, schedule: Q01DX009 (ip), vehicle: saline with Tween-80
[12] = dose: 60.0 mg/kg/injection, schedule: Q01DX005 (ip), vehicle: saline with Tween-80

Measured: T/C

COc1ccc2nc3c(C)c4ccn(Cc5ccc(I)cc5)cc4c(C)c3c2c1
inactive: dose: 13.5 mg/kg/injection, schedule: Q04DX002 (ip), vehicle: saline with Tween-80 116 % of control | dose: 27.0 mg/kg/injection, schedule: Q04DX002 (ip), vehicle: saline with Tween-80 113 % of control | dose: 54.0 mg/kg/injection, schedule: Q04DX002 (ip), vehicle: saline with Tween-80 122 % of control | dose: 108.0 mg/kg/injection, schedule: Q04DX002 (ip), vehicle: saline with Tween-80 105 % of control

CC1(C)CNC(=S)N1Cc1ccccc1
inactive: dose: 50.0 mg/kg/injection, schedule: Q01DX009 (ip), vehicle: suspension in saline 100 % of control | dose: 100.0 mg/kg/injection, schedule: Q01DX009 (ip), vehicle: suspension in saline 94 % of control | dose: 200.0 mg/kg/injection, schedule: Q01DX009 (ip), vehicle: suspension in saline 100 % of control

CC1C=CCC(C)(C)C1 (centres undefined)
inactive: [1] 101 % of control | [2] 88 % of control | [3] 106 % of control | dose: 200.0 mg/kg/injection, schedule: Q04DX003 (ip), vehicle: saline 96 % of control | dose: 400.0 mg/kg/injection, schedule: Q04DX003 (ip), vehicle: saline 92 % of control

N#CCCCCCN1CCN(c2cccc(Cl)c2)CC1
inactive: dose: 50.0 mg/kg/injection, schedule: Q01DX009 (ip), vehicle: Klucel (hydroxypropylcellulose) (HPC) 100 % of control | [1] 100 % of control | [3] 96 % of control

N#CN=CN1CC2CCC(CC2)C1
inactive: dose: 3.13 mg/kg/injection, schedule: Q01DX009 (ip), vehicle: saline 98 % of control | dose: 6.25 mg/kg/injection, schedule: Q01DX009 (ip), vehicle: saline 102 % of control | dose: 12.5 mg/kg/injection, schedule: Q01DX009 (ip), vehicle: saline 92 % of control

CCOc1c(N=Nc2ccc(O)cc2)c(C)nn1C(=S)S
inactive: dose: 60.0 mg/kg/injection, schedule: Q01DX005 (ip), vehicle: Klucel + Tween-80 115 % of control | dose: 120.0 mg/kg/injection, schedule: Q01DX005 (ip), vehicle: Klucel + Tween-80 115 % of control | dose: 240.0 mg/kg/injection, schedule: Q01DX005 (ip), vehicle: Klucel + Tween-80 118 % of control

CCN1CC2(C)CCC(OC)C34C5CC6CCC(O)(C5C(=O)O6)C(C(OC(C)=O)C23)C14 (centres undefined)
inactive: dose: 3.0 mg/kg/injection, schedule: Q01DX009 (ip), vehicle: saline 100 % of control | dose: 6.0 mg/kg/injection, schedule: Q01DX009 (ip), vehicle: saline 101 % of control | dose: 12.0 mg/kg/injection, schedule: Q01DX009 (ip), vehicle: saline 98 % of control

CCOC(OCC)c1c(Cl)cccc1Cl
inactive: [4] 118 % of control | dose: 100.0 mg/kg/injection, schedule: Q04DX003 (ip), vehicle: saline with Tween-80 100 % of control | [5] 118 % of control | dose: 200.0 mg/kg/injection, schedule: Q04DX003 (ip), vehicle: saline with Tween-80 100 % of control | dose: 400.0 mg/kg/injection, schedule: Q04DX003 (ip), vehicle: saline with Tween-80 90 % of control

COc1cc(Br)c(C(C)(C)C#N)cc1OC
inactive: [6] 101 % of control | [7] 101 % of control | [8] 100 % of control

Nc1c(C(=O)O)[nH]c(=O)[nH]c1=O
inactive: [9] 119 % of control | [10] 119 % of control | [11] 120 % of control | [4] 118 % of control

Cc1cc2c(cc1C)NC1C(=O)C(c3cccc([N+](=O)[O-])c3)OC1=N2 (centres undefined)
inactive: [6] 111 % of control | [7] 90 % of control | [8] 87 % of control

Clc1ccccc1OCC1CO1 (centres undefined)
inactive: [4] 100 % of control | [5] 109 % of control | dose: 400.0 mg/kg/injection, schedule: Q01DX009 (ip), vehicle: saline with Tween-80 109 % of control

OC(c1cc(-c2ccc(Cl)cc2)nc2ccccc12)C1CCCCN1 (centres undefined)
inactive: dose: 50.0 mg/kg/injection, schedule: Q01DX005 (ip), vehicle: saline with Tween-80 105 % of control | dose: 100.0 mg/kg/injection, schedule: Q01DX005 (ip), vehicle: saline with Tween-80 113 % of control

COC(=O)CCc1cc(=O)oc2c(I)c(O)cc(O)c12
inactive: dose: 8.75 mg/kg/injection, schedule: Q01DX005 (ip), vehicle: Klucel (hydroxypropylcellulose) (HPC) 99 % of control | dose: 17.5 mg/kg/injection, schedule: Q01DX005 (ip), vehicle: Klucel (hydroxypropylcellulose) (HPC) 93 % of control | dose: 35.0 mg/kg/injection, schedule: Q01DX005 (ip), vehicle: Klucel (hydroxypropylcellulose) (HPC) 101 % of control

COc1cc(C2CC(C)(OC)Oc3cc4c(cc32)OCO4)cc(OC)c1O (centres undefined)
inactive: dose: 15.0 mg/kg/injection, schedule: Q01DX005 (ip), vehicle: saline with Tween-80 90 % of control | dose: 30.0 mg/kg/injection, schedule: Q01DX005 (ip), vehicle: saline with Tween-80 88 % of control | [12] 89 % of control

N=C(N)c1cccc([N+](=O)[O-])c1
inactive: dose: 50.0 mg/kg/injection, schedule: Q01DX009 (ip), vehicle: saline 98 % of control | dose: 100.0 mg/kg/injection, schedule: Q01DX009 (ip), vehicle: saline 96 % of control

O=C1CCCC2=C1C(c1ccc(Cl)c(Cl)c1)C1=C(CCCC1=O)O2
inactive: [12] 95 % of control | dose: 120.0 mg/kg/injection, schedule: Q01DX005 (ip), vehicle: saline with Tween-80 95 % of control | dose: 240.0 mg/kg/injection, schedule: Q01DX005 (ip), vehicle: saline with Tween-80 94 % of control

COc1ccccc1N=C1SCC(=O)N1Cc1ccco1
inactive: [11] 95 % of control | [4] 95 % of control | [5] 92 % of control

CCNC(=O)Nc1nc2ccccc2[nH]1
inactive: [9] 103 % of control | [10] 100 % of control | [11] 107 % of control

COC1/C=C/OC2(C)Oc3c(C)c(O)c4c(c3C2=O)C(=O)C2=C(NC(=NC2)/C(C)=C\C=C\C(C)C(O)C(C)C(O)C(C)C(OC(C)=O)C1C)C4=O (centres undefined)
inactive: dose: 6.25 mg/kg/injection, schedule: Q04DX003 (ip), vehicle: other 94 % of control | dose: 12.5 mg/kg/injection, schedule: Q04DX003 (ip), vehicle: other 101 % of control | dose: 25.0 mg/kg/injection, schedule: Q04DX003 (ip), vehicle: other 113 % of control | dose: 50.0 mg/kg/injection, schedule: Q04DX003 (ip), vehicle: other 109 % of control | dose: 100.0 mg/kg/injection, schedule: Q04DX003 (ip), vehicle: other 122 % of control

COc1cc(-c2nn(CN3CCN(Cn4nc(-c5cc(OC)c(OC)c(OC)c5)oc4=S)CC3)c(=S)o2)cc(OC)c1OC
inactive: [6] 97 % of control | [7] 87 % of control | [8] 93 % of control

CC(=O)OC1CC2CCCCC2[N+](C)(C)C1 (centres undefined)
inactive: dose: 25.0 mg/kg/injection, schedule: Q04DX003 (ip), vehicle: saline 106 % of control | dose: 50.0 mg/kg/injection, schedule: Q04DX003 (ip), vehicle: saline 103 % of control | [2] 104 % of control

CCc1cc(-c2cc(CC)[nH]n2)n[nH]1
inactive: dose: 60.0 mg/kg/injection, schedule: Q01DX005 (ip), vehicle: saline 100 % of control | dose: 120.0 mg/kg/injection, schedule: Q01DX005 (ip), vehicle: saline 97 % of control | dose: 240.0 mg/kg/injection, schedule: Q01DX005 (ip), vehicle: saline 95 % of control

CN(C)CCCN1c2ccccc2Oc2ccc(Cl)cc21
inactive: dose: 50.0 mg/kg/injection, schedule: Q01DX005 (ip), vehicle: saline 105 % of control | dose: 100.0 mg/kg/injection, schedule: Q01DX005 (ip), vehicle: saline 106 % of control

COC(=S)C(=S)OC
inactive: [9] 108 % of control | [10] 108 % of control

CCOC(=O)C(C)OC1CCCCO1 (centres undefined)
inactive: dose: 50.0 mg/kg/injection, schedule: Q01DX009 (ip), vehicle: other 105 % of control | dose: 100.0 mg/kg/injection, schedule: Q01DX009 (ip), vehicle: other 95 % of control | dose: 200.0 mg/kg/injection, schedule: Q01DX009 (ip), vehicle: other 96 % of control

COc1cc(-c2ccc(O)cc2)c(OC)c(O)c1-c1ccc(O)cc1
inactive: dose: 0.15 mg/kg/injection, schedule: Q01DX009 (ip), vehicle: saline 90 % of control | dose: 0.3 mg/kg/injection, schedule: Q01DX009 (ip), vehicle: saline 90 % of control | dose: 0.6 mg/kg/injection, schedule: Q01DX009 (ip), vehicle: saline 107 % of control | dose: 1.2 mg/kg/injection, schedule: Q01DX009 (ip), vehicle: saline 89 % of control

Cc1nc2c(Cl)cc(Cl)cc2c(=O)n1CC(=O)NNC(N)=S
inactive: [11] 97 % of control | [4] 94 % of control | [5] 93 % of control
